What was measured:
[1] = tested on: A2780, MCF-7 and SMMC-7721; experiment: MTT test, three cancer cell lines together; format: cell-based; settings: on A2780, MCF-7 and SMMC-7721, range over the three lines
Method: (§1) (Nunc). To check the interference effects of candidate membranes. […]
(§2) Microplate Spectrophotometer with excitation wavelength (Boster). being 432 nm. The IC50 calculations were performed by Graphpad Prism 5 (Graphpad software, Inc.). Key residues discovery
(§3) Tests of candidate compounds on suppressing In the present study, key residues involved in the […]
(§4) by using site-directed mutagenesis and FPA competition
(§5) Cell lines including A2780, MCF-7 and SMMC- assays in combination. According to the results of pairwise 7721 were cultured to the logarithmic growth phase per-residue free energy decomposition, the residues in 3 ml complete media (RPMI1640 plus 10%FBS), contributing a lot to the binding of PUMA/Comp8 to 4 Mcl-1 were subjected to site-directed mutagenesis. By respectively. After adjusting their concentrations to 5×10 reference to the primers listed in Supplementary Table5, cells/ml with complete media, these cell lines were plated overlapping extension PCR was conducted to realize into 96-well, transparent, flat-bottom plates (150 μl/well), site-directed mutagenesis. After verified by gene each point was prepared in three replicates. The density sequencing, the individually mutated PCR products were of cultured cell lines was evaluated by MTT tests. When cloned into the expressing vector pET-43.1a (+). […]

SMMC-7721 cells = experiment: MTT test on suppressing cancer cells, SMMC-7721; format: cell-based; settings: Homo sapiens, 24h
Method: as §1, §2, §3, §4, §5

[2] = tested on: DLD-1 cells infected with Ad-PUMA; experiment: PUMA-dependent apoptosis of DLD-1 cells infected with Ad-PUMA (Caspase-Glo 3/7); format: cell-based; settings: Homo sapiens, DLD-1, Ad-PUMA, 48h
Method: (§6) Tests of candidate compounds on blocking Synthesis of compound 8
(§7) PUMA-dependent apoptosis To a suspension of rhodanine (7.57 mmol) in dry Construction and validation of recombinant ethanol (10 mL), 4-Biphentlaldehyde (11.3 mmol), N-(2-Adenovirus By taking pHBAd-MCMV-GFP (Hanbio) as hydroxyethyl) piperazine (11.3 mmol), and glacial acetic vector, the construction and purification of Adenoviruses acid (0.75 mmol) were added and the resulting mixture overexpressing PUMA and PUMA-∆BH3 (PUMA was further stirred under reflux for 5-6 h. The reaction was without the BH3 domain) were performed according to completed and then cooled in an ice bath. The precipitated former reports. […]
(§8) various multiplicity of infection (MOI, 6 points, from 0 The crystal structure of Comp8 was solved by X-ray to 160) in 96-well, white, flat-bottom plates (Nunc). […] Shake gently and record the luminescence of each well on TECAN Infinite M1000 S.Y.Z., H.C., J.N.L and J.Y.L. conceived the project.
(§9) Microplate Spectrophotometer. The data were analyzed J.Y.L. and Z.T. designed the experiment. J.Y.L., Z.T., by Graphpad Prism and suitable MOI of Ad-PUMA for N.Z., X.Y.L. and C.Y.L. performed the experiments and following cell infection can be determined in this process. prepared the manuscript. […]
(§10) added to make the final compound concentrations range 2. […] The results were detected by flexible docking. […]

MCF-7 cells = experiment: MTT test on suppressing cancer cells, MCF-7; format: cell-based; settings: Homo sapiens, MCF7, 24h
Method: as §1, §2, §3, §4, §5

A2780 cells = experiment: MTT test on suppressing cancer cells, A2780; format: cell-based; settings: Homo sapiens, 24h
Method: as §1, §2, §3, §4, §5

[3] = tested on: Caspase-3, Cyto-c and Bcl-2 in A2780, MCF-7 and SMMC-7721 cells; experiment: Western blot analysis of apoptotic marker proteins; format: cell-based
Method: (§11) BH3 peptide of Mcl-1 (FITC-Mcl-BH3, FITC-AHx-Western blot analysis […]
-NH2) was synthesized […]
and used as fluorescence probe in the FPA competition A2780, MCF-7 and SMMC-7721 cells treated with assays. All assays were performed in the assay and without Comp8 were harvested, washed by precooled buffer (pH 7.4) composed of 20 mM Tris, 50 mM NaCl, PBS and split by RIPA lysis buffer (Thermo) containing 3 mM DTT and 2% DMSO. The FPA competition assays PMSF (protease inhibitor). Quantified protein samples were carried out in the 96-well, black, flat-bottom plates were separated by SDS-PAGE and then transferred to NC (Nunc). To check the interference effects of candidate membranes. After being blocked for 1h, all membranes compounds on the interaction between Mcl-1 and FITC- were incubated with primary antibodies against protein Mcl-BH3, solutions containing 250 nM Mcl-1 and 250 nM Caspase (1:500, Abcam), Cyto-c (1:500, Abcam) and fluorescence probes were titrated with 250 μM selected Bcl-2 (1:500, Abcam) at 4℃ overnight. […] The emission fluorescence changes were antibodies (1:10000, Jackson) for 1 h at 37°C, the signals recorded from 480 to 540 nm by TECAN Infinite M1000 were detected with ECL western blot detection system Microplate Spectrophotometer with excitation wavelength (Boster). being 432 nm. […]

[4] = tested on: HUVECs infected with Ad-PUMA; experiment: PUMA-induced apoptosis of HUVECs infected with Ad-PUMA (Caspase-Glo 3/7); format: cell-based; settings: low-dose, less than 12.5 μM, 48h
Method: as §6, §7, §8, §9, §10

Mcl-1N241A = target: T1, Mcl-1N241A (Homo sapiens, UniProt Q07820, N260A); experiment: FPA competition assay, mutant Mcl-1 N241A; format: binding
T1 construct: implied by Ni2+-NTA purification from pET-43.1a(+)); made in house; host or cells: E. coli BL21
Method: (§12) 1 protein was induced by 0.6 mM IPTG for 20 h in the Flow cytometry condition of 20°C, 160 rpm. The strains were harvested by centrifugation (6000 rpm, 10 min, 4°C) and broken Tested cells (A2780, MCF-7 and SMMC-7721) by ultrasonication (10 s operation and 10 s stop, 5 min). were plated in 6-well plates (1×10^5 cells/well) and treated […]
(§13) All cells were detached by trypsin and washed manufacturer ’s instructions. The purified Mcl-1 was (three times) by precooled PBS. The resuspended cells analyzed by 15% SDS-PAGE and dialyzed against 10 mM were stained by Annexin V-FITC and PI in sequence PBS (pH 7.4) before being stored under −80°C for later use. before being detected by flow cytometry.
(§14) FPA competition assays The FITC labelled
as §11
(§15) and used as fluorescence probe in the FPA competition A2780, MCF-7 and SMMC-7721 cells treated with assays. All assays were performed in the assay and without Comp8 were harvested, washed by precooled

Mcl-1D237A = target: T2, Mcl-1D237A (Homo sapiens, UniProt Q07820, D256A); experiment: FPA competition assay, mutant Mcl-1 D237A; format: binding
T2 construct: implied by Ni2+-NTA purification from pET-43.1a(+)); made in house; host or cells: E. coli BL21
Method: as §12, §13, §14, §11, §15

Mcl-1R244A = target: T3, Mcl-1R244A (Homo sapiens, UniProt Q07820, R263A); experiment: FPA competition assay, mutant Mcl-1 R244A; format: binding
T3 construct: implied by Ni2+-NTA purification from pET-43.1a(+)); made in house; host or cells: E. coli BL21
Method: as §12, §13, §14, §11, §15

Mcl-1WT = target: T4, Mcl-1WT (Homo sapiens, UniProt Q07820); experiment: FPA competition assay, wildtype Mcl-1; format: binding; settings: FITC-Mcl-BH3 probe
T4 construct: implied by Ni2+-NTA purification from pET-43.1a(+)); made in house; host or cells: E. coli BL21

Mcl-1F251A = target: T5, Mcl-1F251A (Homo sapiens, UniProt Q07820, F270A); experiment: FPA competition assay, mutant Mcl-1 F251A; format: binding
T5 construct: implied by Ni2+-NTA purification from pET-43.1a(+)); made in house; host or cells: E. coli BL21
Method: as §12, §13, §14, §11, §15

[5] = tested on: A2780, MCF-7 and SMMC-7721; experiment: Flow cytometry detection of apoptosis (Annexin V-FITC/PI); format: cell-based; settings: 48h; 47.42 μM for A2780 and MCF-7, 27.80 μM for SMMC-7721
Method: After cleared by centrifugation (12000 rpm, 30 min) and with/without the given concentration of Comp8 for 48h filtration (0.44 μm filter membrane), the lysate was purified (47.42 μM for A2780 and MCF-7, 27.80 μM for SMMC-by Ni2+-NTA sepharose gel column (7Sea) following the 7721). All cells were detached by trypsin and washed manufacturer ’s instructions. The purified Mcl-1 was (three times) by precooled PBS. The resuspended cells analyzed by 15% SDS-PAGE and dialyzed against 10 mM were stained by Annexin V-FITC and PI in sequence PBS (pH 7.4) before being stored under −80°C for later use. before being detected by flow cytometry. […]
as §1, §2, §3, §4
Cell lines including A2780, MCF-7 and SMMC- assays in combination. According to the results of pairwise 7721 were cultured to the logarithmic growth phase per-residue free energy decomposition, the residues in 3 ml complete media (RPMI1640 plus 10%FBS), contributing a lot to the binding of PUMA/Comp8 to 4 Mcl-1 were subjected to site-directed mutagenesis. […]

Mcl-1H205A = target: T6, Mcl-1H205A (Homo sapiens, UniProt Q07820, H224A); experiment: FPA competition assay, mutant Mcl-1 H205A; format: binding
T6 construct: implied by Ni2+-NTA purification from pET-43.1a(+)); made in house; host or cells: E. coli BL21
Method: as §12, §13, §14, §11, §15

Mcl-1 = settings: known Mcl-1 inhibitor; cited from earlier work

T4 sequence (Q07820 172-327): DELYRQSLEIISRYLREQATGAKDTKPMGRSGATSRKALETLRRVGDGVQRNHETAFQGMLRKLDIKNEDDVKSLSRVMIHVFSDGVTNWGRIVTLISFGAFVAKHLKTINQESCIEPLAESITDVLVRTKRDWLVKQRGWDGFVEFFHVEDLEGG
T5 sequence (Q07820 172-327 F270A): as the sequence (Q07820 172-327) above, with F99A counted along it
T1 sequence (Q07820 172-327 N260A): as the sequence (Q07820 172-327) above, with N89A counted along it
T6 sequence (Q07820 172-327 H224A): as the sequence (Q07820 172-327) above, with H53A counted along it
T3 sequence (Q07820 172-327 R263A): as the sequence (Q07820 172-327) above, with R92A counted along it
T2 sequence (Q07820 172-327 D256A): as the sequence (Q07820 172-327) above, with D85A counted along it

**Q.** With CC1(C)CCC(c2ccc(Cl)cc2)=C(CN2CCN(c3ccc(C(=O)NS(=O)(=O)c4ccc(N[C@H](CCN5CCOCC5)CSc5ccccc5)c(S(=O)(=O)C(F)(F)F)c4)cc3)CC2)C1 [ABT-263, reference compound] as the molecule, how does the IC50 [1] read?
**A.** 20 to 50 µM

**Q.** And the IC50 (SMMC-7721 cells)?
**A.** 29.5 ± 1.36 µM

**Q.** What about the EC50 ([2]; read-out: EC50 (action on apoptosis)) of the same molecule?
**A.** 2.75 ± 0.24 µM

**Q.** And the IC50 (MCF-7 cells)?
**A.** 32 ± 3.48 µM

**Q.** What about the IC50 (A2780 cells) of the same molecule?
**A.** 21.8 ± 1.85 µM

**Q.** Which results are given for O=C1N=C(N2CCN(CCO)CC2)S/C1=C\c1ccc(-c2ccccc2)cc1 [Comp8]?
**A.** changes of three apoptosis indicators (WB) [3]: fitted well with the characteristics of apoptosis; effect on PUMA-induced apoptosis of HUVECs [4]: inhibitory effect; IC50 [1]: 20 to 50 µM; IC50 (SMMC-7721 cells): 44.2 ± 2.22 µM; Ki (Mcl-1N241A): 1.95 ± 0.45 µM; Ki (Mcl-1D237A): 1.98 ± 0.31 µM; IC50 ([2]; read-out: IC50 (inhibition of PUMA-dependent apoptosis)): 38.9 ± 0.91 µM; IC50 (MCF-7 cells): 44.2 ± 2.3 µM; Ki (Mcl-1R244A): 3.52 ± 0.59 µM; Ki (Mcl-1WT): 0.3 ± 0.04 µM; Ki (Mcl-1F251A): 0.66 ± 0.13 µM; IC50 (A2780 cells): 47.6 ± 2.99 µM; apoptotic cells (FCM) [5]: substantial increase of apoptotic cells; Ki (Mcl-1H205A): 1.24 ± 0.35 µM

**Q.** For O=C(O)CSc1cc(NS(=O)(=O)c2ccc(Br)cc2)c2ccccc2c1O [UMI-77], which Ki (Mcl-1) is on record?
**A.** 0.49 µM
